Usually IC50 stands for the point on the concentration scale where inhibition reaches its midpoint.

In assay [1] the target is T1, ROCK1 (Homo sapiens, UniProt Q13464).
T1 construct: purchased Invitrogen PV3691
The assay can be described thus: Kinase IC50 assay, HTRF kinEASE STK S2 kit, ROCK1. In kind it is biochemical. The note with it: ATP 1.5 μM, 2.5 ng/well enzyme, 120 min. Here is the method: (§1) Kinase IC50 assay was performed using the kinase assay kit HTRF kinEASE STK S2 kit (Cat #62ST2PEC, Cisbio). Kinases ROCK1 (Cat #PV3691) and ROCK2 (Cat #PV3759) were purchased from Invitrogen.
(§2) The working solution required for the assay was prepared with the appropriate reagents as described in the kinase assay kit instructions:
(§3) 1 mL of 1× Kinase Buffer contains 200 μL 5× Enzyme buffer, 5 μL 1M MgCl2 (Cat.M8266, Sigma), 1 μL 1M DTT (Cat.D5545, Sigma), 794 μL ddH2O.
(§4) The specific concentrations of STK-biotin substrate and ATP are shown in Table A. STK-biotin substrate and ATP were diluted with 1× kinase buffer to 2.5 times of the reaction concentration.
(§5) Concentrations of ROCK1/ROCK2 are shown in Table A. 5×ROCK1/ROCK2 Kinase working solution was prepared with 1× Kinase Buffer.
(§6) See Table A for the concentrations of Streptavidin-XL665 and STK Antibody-Cryptate in the reaction. 2× Streptavidin-XL665 and STK Antibody-Cryptate Working Solutions were prepared 5 minutes prior to the end of the kinase reaction using Detection Buffer from the kit.
(§7) A 100 μM compound mother solution was prepared using 1× kinase buffer containing 2.5% DMSO, and the mother solution was diluted 4-fold stepwise with the above DMSO-containing kinase buffer to obtain nine different concentrations of the compound solutions to be tested. In addition to the test compound wells, positive control wells (containing all reagents except the compounds) and negative control wells (containing all reagents except the compounds and kinase) were set up. 4 μL of the test compound solution was added to all reaction wells except the control wells and 4 μL of 2.5% DMSO solution was added to the control wells. Then 4 μL of previously prepared substrate and ATP working solution were added to all wells and mix well. Then, 2 μL/well of 5×ROCK1/ROCK2 kinase working solution (containing 2.5 ng ROCK1/ROCK2 kinase) was added to all reaction wells except negative control wells, and the negative control wells were made up to volume with 2 μL of 1× kinase buffer. Mix well, seal with plastic film and incubate at room temperature for 2 hours. Start preparing the assay solution 5 minutes before the end of the kinase reaction. After the end of the kinase reaction, 10 μL of prepared Streptavidin-XL665 and STK Antibody-Cryptate working solution were added to all reaction wells, the plates were sealed and mixed well, and then incubated at room temperature for 1 hour. Finally, the fluorescence signal was detected by SpectraMax i3x Multi-Mode Reader (Molecular Devices) (excitation wavelength is 320 nm, emission wavelength is 665 nm and 615 nm).
(§8) The inhibition rate in each well was calculated from the fluorescence intensity values of each well:
(§9) ER Emission Ratio, Emission light ratio=fluorescence intensity at 665 nm/fluorescence intensity at 615 nm;
(§10) ERcompound, ER of test compound wells; ERvehicle, ER of solvent (positive) control wells, ERblank, ER of blank (negative) control wells.
(§11) The graphs were plotted using the software GraphPad Prism 6.0, while the half inhibitory concentration (IC50) of each compound to be tested was obtained by fitting with Prism 6.0.

The target of assay [2] is T2, ROCK2 (Homo sapiens, UniProt O75116).
T2 construct: purchased Invitrogen PV3759
In words: Kinase IC50 assay, HTRF kinEASE STK S2 kit, ROCK2. The settings on record: ATP 1 μM, 2.5 ng/well enzyme, 120 min. Format: biochemical. Here is the method:
as §1, §2, §3, §4, §5, §6, §7, §8, §9, §10, §11
On the technique in general: Time-resolved FRET reads energy transfer from a long-lived donor to a nearby acceptor.

Where only a bound is given, the exact number is not on record here.

T2 sequence (O75116 5-554 limits assumed): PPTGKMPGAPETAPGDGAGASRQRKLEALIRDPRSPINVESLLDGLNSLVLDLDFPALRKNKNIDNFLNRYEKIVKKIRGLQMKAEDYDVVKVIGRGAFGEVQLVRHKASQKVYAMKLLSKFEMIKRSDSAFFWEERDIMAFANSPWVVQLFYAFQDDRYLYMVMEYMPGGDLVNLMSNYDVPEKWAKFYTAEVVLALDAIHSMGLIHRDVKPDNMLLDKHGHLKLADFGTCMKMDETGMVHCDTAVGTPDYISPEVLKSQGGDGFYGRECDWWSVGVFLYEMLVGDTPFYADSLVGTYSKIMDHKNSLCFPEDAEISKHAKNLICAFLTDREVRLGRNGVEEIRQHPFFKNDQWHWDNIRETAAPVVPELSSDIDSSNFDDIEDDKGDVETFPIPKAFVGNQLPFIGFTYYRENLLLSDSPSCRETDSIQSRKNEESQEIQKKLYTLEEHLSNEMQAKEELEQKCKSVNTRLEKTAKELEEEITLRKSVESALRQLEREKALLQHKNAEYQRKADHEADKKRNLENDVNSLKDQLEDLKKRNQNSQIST
T1 sequence (Q13464 1-535 limits assumed): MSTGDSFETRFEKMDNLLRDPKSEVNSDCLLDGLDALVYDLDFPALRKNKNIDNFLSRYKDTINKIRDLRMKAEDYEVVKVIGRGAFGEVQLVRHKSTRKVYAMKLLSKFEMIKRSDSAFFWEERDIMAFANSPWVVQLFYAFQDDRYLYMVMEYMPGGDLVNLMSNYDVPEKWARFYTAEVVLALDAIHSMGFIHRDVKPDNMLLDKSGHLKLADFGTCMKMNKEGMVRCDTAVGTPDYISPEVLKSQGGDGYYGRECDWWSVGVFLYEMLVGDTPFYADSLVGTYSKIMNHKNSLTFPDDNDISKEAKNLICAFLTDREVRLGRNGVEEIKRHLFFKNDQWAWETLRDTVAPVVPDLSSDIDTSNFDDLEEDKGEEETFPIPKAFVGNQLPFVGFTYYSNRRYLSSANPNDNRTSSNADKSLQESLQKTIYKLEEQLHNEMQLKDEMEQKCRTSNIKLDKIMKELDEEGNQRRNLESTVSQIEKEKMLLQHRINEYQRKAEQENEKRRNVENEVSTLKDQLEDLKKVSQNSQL

With `Cn1c(C#Cc2nccc(Nc3ccc4[nH]ncc4c3)n2)ccc1C(=O)N1CC(F)(F)C1` [Compound A2], the values for the 50% inhibitory concentration (IC50) in assay [1] and in assay [2] were 3.9 µM and 0.303 µM, respectively.

For the compound `Cc1cnc(C#Cc2ccc(C(=O)N3CC(F)(F)C3)n2C)nc1Nc1ccc(-c2cn[nH]c2)cc1` [Compound A4], the concentration for half-maximal inhibition (IC50) in assay [1] turned out to be 80 µM; in assay [2] it was 0.186 µM.

Consider `Cc1cc(Nc2ccc(-c3cn[nH]c3)cc2)nc(C#Cc2ccc(C(=O)N3CC(F)(F)C3)n2C)n1` [Compound A5], for which the figures for the IC50 in assay [1] and in assay [2] were more than 100 µM and 0.091 µM, respectively.

`Cc1nc(C#Cc2ccc(C(=O)N3CC(F)(F)C3)n2C)nc(Nc2ccc(-c3cn[nH]c3)cc2)c1C` [Compound A6]: the IC50 came to 35.2 µM in assay [1] and 0.202 µM in assay [2].

Regarding `Cn1c(C#Cc2ncc(F)c(Nc3ccc(-c4cn[nH]c4)cc3)n2)ccc1C(=O)N1CC(F)(F)C1` [Compound A7], the values for the IC50 in assay [1] and in assay [2] were more than 100 µM and 0.0544 µM, respectively.

Turning to `Cn1c(C#Cc2ncc(C#N)c(Nc3ccc(-c4cn[nH]c4)cc3)n2)ccc1C(=O)N1CC(F)(F)C1` [Compound A8], the values for the IC50 in assay [1] and in assay [2] were more than 100 µM and 3.49 µM, respectively.

As to `Cn1c(C#Cc2ncnc(Nc3ccc(-c4cn[nH]c4)cc3)n2)ccc1C(=O)N1CC(F)(F)C1` [Compound A9], the figures for the IC50 in assay [1] and in assay [2] were more than 100 µM and 0.702 µM, respectively.

For `Cn1c(C#Cc2nc3c(c(Nc4ccc(-c5cn[nH]c5)cc4)n2)COC3)ccc1C(=O)N1CC(F)(F)C1` [Compound A10], the half-inhibitory concentration (IC50) in assay [1] is more than 100 µM; in assay [2] it was 0.0778 µM.

In the case of `CN1Cc2nc(C#Cc3ccc(C(=O)N4CC(F)(F)C4)n3C)nc(Nc3ccc(-c4cn[nH]c4)cc3)c2C1` [Compound A11], the values for the IC50 in assay [1] and in assay [2] were more than 100 µM and 0.0867 µM, respectively.

For `Cc1cc(Nc2ccnc(C#Cc3ccc(C(=O)N4CC(F)(F)C4)n3C)n2)ccc1-c1cn[nH]c1` [Compound A12], the values for the IC50 in assay [1] and in assay [2] were 32.3 µM and 0.199 µM, respectively.

In the case of `Cc1n[nH]c(C)c1-c1ccc(Nc2ccnc(C#Cc3ccc(C(=O)N4CC(F)(F)C4)n3C)n2)cc1` [Compound A14], the IC50 is more than 100 µM in assay [1] and 0.585 µM in assay [2].

`Cn1c(C#Cc2ncc(F)c(Nc3ccc(-c4c[nH]nc4F)cc3)n2)ccc1C(=O)N1CC(F)(F)C1` [Compound A15]: the IC50 in assay [1] is more than 100 µM; in assay [2], 0.421 µM.

`Cc1[nH]ncc1-c1ccc(Nc2nc(C#Cc3ccc(C(=O)N4CC(F)(F)C4)n3C)ncc2F)cc1` [Compound A16]: the values for the concentration for half-maximal inhibition (IC50) in assay [1] and in assay [2] were 29.6 µM and 0.0349 µM, respectively.

On to `Cn1nc(C#Cc2nccc(Nc3ccc(-c4cn[nH]c4)cc3)n2)cc1C(=O)N1CC(F)(F)C1` [Compound A17], for which the half-inhibitory concentration (IC50) came to 50.3 µM in assay [1] and 1.06 µM in assay [2].

On to `Cn1cc(C#Cc2nccc(Nc3ccc(-c4cn[nH]c4)cc3)n2)cc1C(=O)N1CC(F)(F)C1` [Compound A18], for which the IC50 amounted to 53.8 µM in assay [1] and 2.35 µM in assay [2].

With `O=C(c1ccc(C#Cc2nccc(Nc3ccc(-c4cn[nH]c4)cc3)n2)s1)N1CC(F)(F)C1` [Compound A19], the values for the IC50 in assay [1] and in assay [2] were more than 100 µM and 50.5 µM, respectively.

Turning to `O=C(c1cccc(C#Cc2nccc(Nc3ccc(-c4cn[nH]c4)cc3)n2)n1)N1CC(F)(F)C1` [Compound A20], the IC50 in assay [1] was more than 100 µM; in assay [2], 0.206 µM.

For the compound `O=C(c1ccc(C#Cc2nccc(Nc3ccc(-c4cn[nH]c4)cc3)n2)nc1)N1CC(F)(F)C1` [Compound A21], the IC50 in assay [1] is more than 100 µM; in assay [2], 0.754 µM.

Turning to `Cc1c(Nc2ccnc(C#Cc3ccc(C(=O)N4CC(F)(F)C4)n3C)n2)ccc2[nH]ncc12` [Compound A22], the IC50 in assay [1] is 40.9 µM; in assay [2], 3.59 µM.

Take `Cn1c(C#Cc2ncc(F)c(Nc3ccc4c(=O)[nH]ccc4c3)n2)ccc1C(=O)N1CC(F)(F)C1` [Compound A27]: the IC50 in assay [1] is more than 100 µM; in assay [2], 0.274 µM.

Turning to `O=C(c1ccc(C#Cc2nccc(Nc3ccc(-c4cn[nH]c4)cc3)n2)cc1)N1CC(F)(F)C1` [Compound A28], the IC50 was more than 100 µM in assay [1] and 1.1 µM in assay [2].

With `O=C(c1cccc(C#Cc2nccc(Nc3ccc(-c4cn[nH]c4)cc3)n2)c1)N1CC(F)(F)C1` [Compound A29], the IC50 in assay [1] worked out at 57.1 µM; in assay [2] it was 2 µM.

Regarding `O=C(c1ccc(C#Cc2nccc(Nc3ccc(-c4cn[nH]c4)cc3)n2)n1C1CC1)N1CC(F)(F)C1` [Compound A30], the IC50 in assay [1] stood at 41.9 µM; in assay [2], 0.118 µM.

`CCn1c(C#Cc2nccc(Nc3ccc(-c4cn[nH]c4)cc3)n2)ccc1C(=O)N1CC(F)(F)C1` [Compound A32]: the IC50 in assay [1] amounted to 30.7 µM; in assay [2], 0.232 µM.

For `Cn1c(C#Cc2nc(Nc3ccc(-c4cn[nH]c4)cc3)c3ccccc3n2)ccc1C(=O)N1CC(F)(F)C1` [Compound A37], the IC50 in assay [1] is more than 100 µM; in assay [2], 0.42 µM.

As for `O=C1c2ccc(C#Cc3ncc(F)c(Nc4ccc(-c5cn[nH]c5)cc4)n3)n2CCN1CC(F)(F)F` [Compound A38], the values for the IC50 in assay [1] and in assay [2] were more than 100 µM and 0.445 µM, respectively.

Turning to `Cc1cc(C(=O)N2CC(F)(F)C2)n(C)c1C#Cc1ncc(F)c(Nc2cc(F)c(-c3cn[nH]c3)c(F)c2)n1` [Compound A40], the IC50 in assay [1] was more than 100 µM; in assay [2], 0.0172 µM.

On to `Cc1cc(C(=O)N2CC(F)(F)C2)n(C)c1C#Cc1ncc(F)c(Nc2cnc(-c3cn[nH]c3)c(F)c2)n1` [Compound A41], for which the IC50 is more than 100 µM in assay [1] and 0.0724 µM in assay [2].

With `Cc1cc(C(=O)N2CC(F)(F)C2)n(C)c1C#Cc1ncc(F)c(Nc2ccc(-c3cn[nH]c3)c(F)c2)n1` [Compound A42], the IC50 in assay [1] came to 4.93 µM; in assay [2], 0.005 µM.

`Cc1cc(C(=O)N2CC(F)(F)C2)n(C)c1C#Cc1ncc(F)c(Nc2cc(F)c(-c3cn[nH]c3C)c(F)c2)n1` [Compound A43]: the values for the half-maximal inhibitory concentration (IC50) in assay [1] and in assay [2] were 20.6 µM and 0.0515 µM, respectively.

`Cc1cc(C(=O)N2CC(F)(F)C2)n(C)c1C#Cc1ncc(F)c(Nc2ccc(-c3cn[nH]c3C)cc2)n1` [Compound A44]: the IC50 is more than 100 µM in assay [1] and 0.0127 µM in assay [2].

Take `Cc1cc(C(=O)N2CC(F)(F)C2)n(C)c1C#Cc1nc(C)c(F)c(Nc2ccc(-c3cn[nH]c3)c(F)c2)n1` [Compound A45]: the half-inhibitory concentration (IC50) in assay [1] was 8.8 µM; in assay [2], 0.0352 µM.

In the case of `O=C(c1cccc(C#Cc2ncc(F)c(Nc3cc(F)c(-c4cn[nH]c4)cc3F)n2)n1)N1CC(F)(F)C1` [Compound A46], the IC50 was more than 100 µM in assay [1] and 0.161 µM in assay [2].

Consider `Cc1cc(C(=O)N2CC(F)(F)C2)n(C)c1C#Cc1ncc(F)c(Nc2cc(F)c(-c3cn[nH]c3C)cc2F)n1` [Compound A47], for which the figures for the IC50 in assay [1] and in assay [2] were more than 100 µM and 0.476 µM, respectively.

Consider `Cc1cc(C(=O)N2CC(F)(F)C2)n(C)c1C#Cc1ncc(F)c(Nc2cnc(-c3cn[nH]c3C)cc2F)n1` [Compound A48], for which the IC50 in assay [1] was determined as 18.4 µM; in assay [2], 0.0377 µM.

For `Cc1cc(C(=O)N2CC(F)(F)C2)n(C)c1C#Cc1ncc(F)c(Nc2cc(F)c(-c3cn[nH]c3)cc2F)n1` [Compound A49], the IC50 in assay [1] worked out at 37.4 µM; in assay [2] it was 0.0177 µM.

For the compound `Cc1cc(C(=O)N2CC(F)(F)C2)n(C)c1C#Cc1nc2c(c(Nc3cc(F)c(-c4cn[nH]c4)c(F)c3)n1)COC2` [Compound A50], the IC50 in assay [1] is 0.073 µM; in assay [2], 0.0089 µM.

Consider `Cc1cc(C(=O)N2CC(F)(F)C2)n(C)c1C#Cc1ncc(F)c(Nc2ccc(-c3cn[nH]c3C)cc2F)n1` [Compound A51], for which the IC50 was more than 100 µM in assay [1] and 0.131 µM in assay [2].

For `Cn1c(C(=O)N2CC(F)(F)C2)cc(C2CC2)c1C#Cc1ncc(F)c(Nc2cc(F)c(-c3cn[nH]c3)cc2F)n1` [Compound A54], the figures for the half-inhibitory concentration (IC50) in assay [1] and in assay [2] were 64 µM and 0.0192 µM, respectively.

On to `CC(C)c1cc(C(=O)N2CC(F)(F)C2)n(C)c1C#Cc1ncc(F)c(Nc2cc(F)c(-c3cn[nH]c3)cc2F)n1` [Compound A55], for which the results for the IC50 in assay [1] and in assay [2] were more than 100 µM and 0.0573 µM, respectively.

Values taken from patent US20260265279A1, “RHO-ASSOCIATED PROTEIN KINASE INHIBITOR AND PREPARATION AND USE THEREOF” (Shanghai Zhimeng Biopharma, Inc, priority 2022, published 2026).
